Measured values as given in the supplement of paper PMC12533247.
± gives the standard deviation of the averaged measurements.

Legend:
[1] = tested on: HSV-1 K26-GFP infected primary human skin cells; assay: % change of HSV-1 GFP signal vs untreated infected cells; higher = less antiviral inhibition
Description: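 2D primary donor-derived keratinocytes (read at 20 hpi) and donor-matched dermal fibroblasts (read at 48 hpi) infected with GFP-HSV-1 K26 at MOI 1 and treated 1 h later with compound dilutions. IncuCyte GFP integrated intensity is normalised by subtracting mock-infected wells and dividing by untreated infected wells, shown as % change (-100 = full inhibition).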

[2] = tested on: HSV-1 K26-GFP infected 3D skin equivalent; assay: % activity on HSV-1 GFP signal (0 = infected DMSO control, -100 = uninfected control); higher = higher signal (negative = inhibition / toxicity); conditions: time (h post infection): 48
Description: (§1)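 Triplicate dose-response (0.04 to 10 uM) of 11 top compounds in 3D bioprinted skin equivalents (submerged and ALI models) infected with GFP-HSV-1 K26 at MOI 0.1 and fixed at 48 hpi. GFP (virus) and tdTomato (fibroblast viability) signals are normalised to per-plate controls.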

primary keratinocytes = assay: % change in live cells vs DMSO control; higher = less cytotoxic; conditions: time (h post treatment): 20
Description: (§2)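 Cytotoxicity in uninfected 2D primary donor keratinocytes (20 h post treatment) and fibroblasts (48 h post treatment), measured with NucSpot live/dead dyes on IncuCyte. Live cells are normalised to the 0.2% DMSO control and shown as % change. Three biological replicates for each of donors 3, 4 and 5.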

[3] = tested on: primary dermal fibroblasts; assay: as above; conditions: time (h post treatment): 48
Description: as §2

[4] = tested on: HSV-1 K26-GFP infected 3D skin equivalent; assay: % change of tdTomato fibroblast signal relative to infected DMSO control; higher = higher signal (negative = inhibition / toxicity); conditions: time (h post infection): 48
Description: as §1

CC(C)c1cnn2c(NCc3ccccc3-n3cccn3)nc(OC3CCCNC3)nc12 (stereo not given) [LDC4297]
% change of HSV-1 GFP signal [%], [1]
Conditions	0.003 µM	0.0091 µM	0.0274 µM	0.0823 µM	0.2469 µM	0.7407 µM	2.2222 µM	6.6667 µM	20 µM	60 µM
cell type: primary dermal fibroblasts, donor: 5, time (h post infection): 48	-4.88 ± 5.9	-5.58 ± 6.5	-6.29 ± 5.6	-17.5 ± 3.9	-44.9 ± 2.6	-60.2 ± 3.7	-78.8 ± 1.5	-97.65 ± 0.27	-99.964 ± 0.014	-99.913 ± 0.048
cell type: primary keratinocytes, donor: 3, time (h post infection): 20	-0.466 ± 8.6	9.74 ± 14	-1.73 ± 7.8	2.24 ± 7.3	-13.6 ± 7.7	-24.8 ± 10	-42.6 ± 3.3	-99.02 ± 0.68	-99.87 ± 0.066	-99.984 ± 0.018
cell type: primary keratinocytes, donor: 4, time (h post infection): 20	-19.1 ± 46	-22.2 ± 36	-23.4 ± 42	-17.1 ± 29	-35.8 ± 24	-61 ± 17	-75.3 ± 1.8	-99.7 ± 0.3	-99.973 ± 0.043	-100.04 ± 0.031
cell type: primary keratinocytes, donor: 5, time (h post infection): 20	–	7.64 ± 7.6	1.09 ± 8	0.186 ± 7.5	-10 ± 20	-17.4 ± 34	-37.8 ± 28	-99.64 ± 0.23	-99.946 ± 0.0037	-99.969 ± 0.017

Conditions	% activity on HSV-1 GFP signal, [2] [%]	% change in live cells, [3] [%]	% change in live cells, primary keratinocytes [%]	% change of tdTomato fibroblast signal, [4] [%]
0.041152 µM, model: ALI	-23.3 ± 22	–	–	-1.16 ± 2.5
0.041152 µM, model: submerged	-10.7 ± 1.2	–	–	7.31 ± 3.4
0.082305 µM, donor: 3	–	-12.3 ± 19	-12 ± 8.2	–
0.082305 µM, donor: 4	–	-2.33 ± 1.5	1 ± 7.8	–
0.082305 µM, donor: 5	–	-0.667 ± 5.5	-10.3 ± 1.5	–
0.123457 µM, model: ALI	-67.2 ± 25	–	–	-6.21 ± 6.1
0.123457 µM, model: submerged	-16.1 ± 16	–	–	-0.0281 ± 6.4
0.246914 µM, donor: 3	–	-11.3 ± 15	-41.3 ± 19	–
0.246914 µM, donor: 4	–	-6.33 ± 3.5	-17.7 ± 23	–
0.246914 µM, donor: 5	–	-2.33 ± 10	-17 ± 7	–
0.37037 µM, model: ALI	-88.4 ± 7.3	–	–	-7.32 ± 13
0.37037 µM, model: submerged	-44.7 ± 10	–	–	-5.4 ± 9.1
0.740741 µM, donor: 3	–	-17.3 ± 16	-36 ± 8.5	–
0.740741 µM, donor: 4	–	-5.33 ± 3.2	-37 ± 15	–
0.740741 µM, donor: 5	–	-7 ± 13	-27.7 ± 5.9	–
1.111111 µM, model: ALI	-99.9 ± 9.8	–	–	-9.38 ± 11
1.111111 µM, model: submerged	-54.4 ± 2.2	–	–	8.7 ± 11
2.22222 µM, donor: 3	–	-22.3 ± 12	-56.3 ± 5.1	–
2.22222 µM, donor: 4	–	-5 ± 5.3	-70 ± 24	–
2.22222 µM, donor: 5	–	-16.3 ± 15	-51.7 ± 6.1	–
3.33333 µM, model: ALI	-105 ± 10	–	–	-3.18 ± 16
3.33333 µM, model: submerged	-74.5 ± 4.4	–	–	7.79 ± 9.1
6.66667 µM, donor: 3	–	-23 ± 15	-75 ± 5.3	–
6.66667 µM, donor: 4	–	-7.33 ± 9.9	-98.67 ± 0.58	–
6.66667 µM, donor: 5	–	-22.7 ± 10	-94.33 ± 0.58	–
10 µM, model: ALI	-99.9 ± 9.1	–	–	1.92 ± 9.9
10 µM, model: submerged	-94.8 ± 1	–	–	-14.8 ± 14
20 µM, donor: 3	–	-24.3 ± 21	-80.3 ± 1.5	–
20 µM, donor: 4	–	-3 ± 6.6	-97.7 ± 3.2	–
20 µM, donor: 5	–	-27.3 ± 12	-95	–
60 µM, donor: 3	–	-30.3 ± 29	-90 ± 1	–
60 µM, donor: 4	–	0.667 ± 11	-99.67 ± 0.58	–
60 µM, donor: 5	–	-33 ± 2.6	-95.3 ± 1.1	–
